The record followed here is patent US10633353B2, “Polymerizable compound, composition, polymer, optically anisotropic body, liquid crystal display element, and organic EL display” (DIC Corporation, priority 2014, dated 2020).

SMILES strings stand for the structures.

The series can be described thus: Preservation stability of the coating liquid. It is filed as physicochemical. As to conditions: coating liquid stored for 2 months shielded from light at 0° C.; appearance and GPC. In short, it runs like this: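 Coating liquid stored 2 months at 0° C shielded from light, then graded A–E. Grades rest on visual appearance, change in composition by GPC, and weight ratio of insoluble components to total solids.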
As to `C=CC(=O)OCCCCCCOc1ccc(OC(=O)C2CCC(COc3ccc(OCC4CCC(C(=O)Oc5ccc(OCCCCCCOC(=O)C=C)cc5)CC4)c(/C=N/N(CCOC(=O)C=C)c4nc5ccccc5s4)c3)CC2)cc1` (centres unmarked) [1-cmn-93], the Preservation stability entry was “A (No visual change in the appearance of the coating liquid was confirmed. A GPC analysis of the coating liquid confirmed that the change in the composition of the coating liquid was 1% or less.)”.
On to `C=CC(=O)OCCCCCCOC1CCC(C(=O)Oc2ccc(OC(=O)C3CCC(OCCCCCCOC(=O)C=C)CC3)c(/C=N/N(c3ccccc3)c3ccccc3)c2)CC1` (centres unmarked) [1-f-21], for which the Preservation stability entry is “A (No visual change in the appearance of the coating liquid was confirmed. A GPC analysis of the coating liquid confirmed that the change in the composition of the coating liquid was 1% or less.)”.
Turning to `C=CC(=O)OCCCCCCOc1ccc(C(=O)OCCc2ccc(OC(=O)c3ccc(OCCCCCCOC(=O)C=C)cc3)c(/C=N/Nc3ccc(C#Cc4ccccc4)cc3)c2)cc1` [1-c-31], the Preservation stability entry is given as “B (No visual change in the appearance of the coating liquid was confirmed. A GPC analysis of the coating liquid confirmed that the change in the composition of the coating liquid was 2% or less.)”.
For the molecule `C=CC(=O)OCCCCCCOc1ccc(OC(=O)c2ccc(OC(=O)c3ccc4cc(OCCCCCCOC(=O)C=C)ccc4c3)cc2)c(/C=N/Nc2nc3ccccc3s2)c1` [1-eh-75], the Preservation stability entry is “A (No visual change in the appearance of the coating liquid was confirmed. A GPC analysis of the coating liquid confirmed that the change in the composition of the coating liquid was 1% or less.)”.
`C=CC(=O)OCCCCCCOc1ccc(OC(=O)C2CCC(COc3ccc(OCC4CCC(C(=O)Oc5ccc(OCCCCCCOC(=O)C=C)cc5)CC4)c(/C=N/Nc4nc5ccccc5s4)c3)CC2)cc1` (centres unmarked) [1-cm-88]: the Preservation stability entry is “A (No visual change in the appearance of the coating liquid was confirmed. A GPC analysis of the coating liquid confirmed that the change in the composition of the coating liquid was 1% or less.)”.
Consider `C=CC(=O)OCCCCOC(=O)/C=C/c1ccc(C(=O)Oc2ccc(OC(=O)c3ccc(/C=C/C(=O)OCCCCOC(=O)C=C)cc3)c(/C=N/Nc3nc4ccc5ccccc5c4s3)c2)cc1` [1-j-65], for which the Preservation stability result is recorded as “B (No visual change in the appearance of the coating liquid was confirmed. A GPC analysis of the coating liquid confirmed that the change in the composition of the coating liquid was 2% or less.)”.
`C=CC(=O)OCCCCCCOc1ccc(C(=O)Oc2ccc(OC(=O)c3ccc(OCCCCCCOC(=O)C=C)cc3)c3sc(-c4ccc([N+](=O)[O-])cc4)nc23)cc1` [r-1, reference compound]: the Preservation stability result is reported as “D (A visual change in the appearance of the coating liquid was confirmed; insoluble components were confirmed. The ratio of the weight of the insoluble components to the total solid content was 5% or less.)”.
As to `C=CC(=O)OCCCOc1ccc(C(=O)Oc2ccc(C(=O)Oc3ccc(OCCCOC(=O)C=C)cc3/C=N/Nc3nc4ccccc4s3)cc2)cc1` [1-eh-71], the Preservation stability entry is listed as “A (No visual change in the appearance of the coating liquid was confirmed. A GPC analysis of the coating liquid confirmed that the change in the composition of the coating liquid was 1% or less.)”.
As for `C=CC(=O)OCCCCCOc1ccc(C(=O)OCCc2ccc(OC(=O)c3ccc(OCCCCCOC(=O)C=C)cc3)c(/C=N/Nc3nc4ccccc4s3)c2)cc1` [1-c-4], the Preservation stability result is listed as “A (No visual change in the appearance of the coating liquid was confirmed. A GPC analysis of the coating liquid confirmed that the change in the composition of the coating liquid was 1% or less.)”.
Turning to `C=CC(=O)OCCCCCOc1ccc(OC(=O)C2CCC(C(=O)OCCc3ccc(OC(=O)C4CCC(C(=O)Oc5ccc(OCCCCCOC(=O)C=C)cc5)CC4)c(C=NNc4nc5ccccc5s4)c3)CC2)cc1` (centres unmarked) [1-c-15], the Preservation stability entry was “A (No visual change in the appearance of the coating liquid was confirmed. A GPC analysis of the coating liquid confirmed that the change in the composition of the coating liquid was 1% or less.)”.
For the molecule `C=CC(=O)OCCCCOc1ccc(C(=O)OCCc2ccc(OC(=O)c3ccc(OCCCCOC(=O)CC)cc3)c(/C=N/Nc3cc4ccccc4[nH]3)c2)cc1` [1-c-28], the Preservation stability result is on record as “B (No visual change in the appearance of the coating liquid was confirmed. A GPC analysis of the coating liquid confirmed that the change in the composition of the coating liquid was 2% or less.)”.
As for `C=CC(=O)OCCCCCCOc1ccc(OC(=O)C2CCC(C(=O)Oc3ccc(OC(=O)C4CCC(C(=O)Oc5ccc(OCCCCCCOC(=O)C=C)cc5)CC4)c4c3SC(=C(C#N)C#N)S4)CC2)cc1` (centres unmarked) [r-2, reference compound], the Preservation stability result was “C (A visual change in the appearance of the coating liquid was confirmed; a trace amount of insoluble components were confirmed, or a GPC analysis of the coating liquid confirmed that the change in the composition of the coating liquid was 3% or less.)”.
For `C=CC(=O)OCCCCOC(=O)C1CCC(OC(=O)C2CCC(C(=O)Oc3ccc(OC(=O)C4CCC(C(=O)OC5CCC(C(=O)OCCCCOC(=O)C=C)CC5)CC4)c(/C=N/Nc4nc5ccccc5s4)c3)CC2)CC1` (centres unmarked) [1-f-95], the Preservation stability result is given as “A (No visual change in the appearance of the coating liquid was confirmed. A GPC analysis of the coating liquid confirmed that the change in the composition of the coating liquid was 1% or less.)”.
For `C=CC(=O)OCCCOc1ccc(CCC(=O)Oc2ccc(OC(=O)CCc3ccc(OCCCOC(=O)C=C)cc3)c(/C=N/Nc3nc4ccccc4s3)c2)cc1` [1-c-49], the Preservation stability result is “A (No visual change in the appearance of the coating liquid was confirmed. A GPC analysis of the coating liquid confirmed that the change in the composition of the coating liquid was 1% or less.)”.
With `C=C(C)C(=O)OCCCCOc1ccc(C(=O)OCCc2ccc(OC(=O)c3ccc(OCCCCOC(=O)C(=C)C)cc3)c(/C=N/Nc3nc4ccccc4s3)c2)cc1` [1-c-6] the entry was “A (No visual change in the appearance of the coating liquid was confirmed. A GPC analysis of the coating liquid confirmed that the change in the composition of the coating liquid was 1% or less.)”.
Next, `C=CC(=O)OCCCCCCOc1ccc(C(=O)Oc2ccc(C(=O)OCCc3ccc(OC(=O)c4ccc(OC(=O)c5ccc(OCCCCCCOC(=O)C=C)cc5)cc4)c(/C=N/Nc4nc5ccccc5s4)c3)cc2)cc1` [1-ch-79]: “A (No visual change in the appearance of the coating liquid was confirmed. A GPC analysis of the coating liquid confirmed that the change in the composition of the coating liquid was 1% or less.)”.
For `C=CC(=O)Oc1ccc(C(=O)OCCc2ccc(OC(=O)c3ccc(OC(=O)C=C)cc3)c(/C=N/Nc3nc4ccccc4s3)c2)cc1` [1-cg-36], the Preservation stability result is listed as “B (No visual change in the appearance of the coating liquid was confirmed. A GPC analysis of the coating liquid confirmed that the change in the composition of the coating liquid was 2% or less.)”.
With `C=CC(=O)OCCCCCCOc1ccc(C(=O)OCCc2ccc(OC(=O)c3ccc(OCCCCCCOC(=O)C=C)cc3)c(/C=N/Nc3ccc4ccccc4c3)c2)cc1` [1-c-32], the Preservation stability result is listed as “B (No visual change in the appearance of the coating liquid was confirmed. A GPC analysis of the coating liquid confirmed that the change in the composition of the coating liquid was 2% or less.)”.
Regarding `C=C(C)C(=O)OCCCOc1ccc(C(=O)OCCc2ccc(OC(=O)c3ccc(OCCCOC(=O)C(=C)C)cc3)c(/C=N/Nc3nc4ccccc4s3)c2)cc1` [1-c-5], the Preservation stability result is “A (No visual change in the appearance of the coating liquid was confirmed. A GPC analysis of the coating liquid confirmed that the change in the composition of the coating liquid was 1% or less.)”.
As for `C=CC(=O)OCCCOc1ccc(/C=C/C(=O)Oc2ccc(OC(=O)/C=C/c3ccc(OCCCOC(=O)C=C)cc3)c(/C=N/Nc3nc4ccccc4s3)c2)cc1` [1-c-44], the Preservation stability result is on record as “B (No visual change in the appearance of the coating liquid was confirmed. A GPC analysis of the coating liquid confirmed that the change in the composition of the coating liquid was 2% or less.)”.
Consider `C=CC(=O)OCCCCOC(=O)C1CCC(C(=O)OC2CCC(C(=O)Oc3ccc(OC(=O)C4CCC(OC(=O)C5CCC(C(=O)OCCCCOC(=O)C=C)CC5)CC4)c(/C=N/N(CCCCCC)c4nc5ccccc5s4)c3)CC2)CC1` (centres unmarked) [1-f-97], for which the Preservation stability entry is on record as “A (No visual change in the appearance of the coating liquid was confirmed. A GPC analysis of the coating liquid confirmed that the change in the composition of the coating liquid was 1% or less.)”.
As to `C=C(C)C(=O)OCCCCCOc1ccc(C(=O)OCCc2ccc(OC(=O)c3ccc(OCCCCCOC(=O)C(=C)C)cc3)c(/C=N/Nc3nc4ccccc4s3)c2)cc1` [1-c-7], the Preservation stability result is “A (No visual change in the appearance of the coating liquid was confirmed. A GPC analysis of the coating liquid confirmed that the change in the composition of the coating liquid was 1% or less.)”.
`C=CC(=O)OCCCOC(=O)/C=C/c1ccc(C(=O)Oc2ccc(OC(=O)c3ccc(/C=C/C(=O)OCCCOC(=O)C=C)cc3)c(/C=N/Nc3nc4ccccc4s3)c2)cc1` [1-j-61]: the Preservation stability result is recorded as “B (No visual change in the appearance of the coating liquid was confirmed. A GPC analysis of the coating liquid confirmed that the change in the composition of the coating liquid was 2% or less.)”.
Regarding `C=CC(=O)OCCCOC(=O)/C=C/c1ccc(CCC(=O)Oc2ccc(OC(=O)CCc3ccc(/C=C/C(=O)OCCCOC(=O)C=C)cc3)c(/C=N/Nc3nc4ccccc4s3)c2)cc1` [1-cj-63], the Preservation stability entry is given as “A (No visual change in the appearance of the coating liquid was confirmed. A GPC analysis of the coating liquid confirmed that the change in the composition of the coating liquid was 1% or less.)”.
Consider `C=CC(=O)OCCCCCCOC1CCC(OC(=O)C2CCC(C(=O)Oc3ccc(OC(=O)C4CCC(C(=O)OC5CCC(OCCCCCCOC(=O)C=C)CC5)CC4)c4c3SC(=C(C#N)C(=O)OCC)S4)CC2)CC1` (centres unmarked) [r-3, reference compound], for which the Preservation stability entry is given as “C (A visual change in the appearance of the coating liquid was confirmed; a trace amount of insoluble components were confirmed, or a GPC analysis of the coating liquid confirmed that the change in the composition of the coating liquid was 3% or less.)”.
In the case of `C=CC(=O)OCCCCCCOc1ccc(C(=O)Oc2ccc3cc(OCCCCCCOC(=O)C=C)ccc3c2/C=N/Nc2nc3ccccc3s2)cc1` [1-e-73], the Preservation stability result is on record as “A (No visual change in the appearance of the coating liquid was confirmed. A GPC analysis of the coating liquid confirmed that the change in the composition of the coating liquid was 1% or less.)”.
